Assay results reported in PubChem BioAssay (NCI).
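Compound exposure: 48 hours, 5 concentrations, 96-well plates. Here, GI50 denotes the concentration required for 50% inhibition of growth. TGI: concentration producing complete growth inhibition.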

Tests used:
Assay in all cases: NCI-60 cell line screen, 48 h
A498 renal = system: A498 renal
NCI-H522 lung = system: NCI-H522 lung
HOP-62 NSCLC = system: HOP-62 NSCLC
SK-OV-3 ovarian = system: SK-OV-3 ovarian
HT29 colon = system: HT29 colon
COLO 205 colon = system: COLO 205 colon
NCI-H460 lung = system: NCI-H460 lung
EKVX NSCLC = system: EKVX NSCLC
U251 CNS = system: U251 CNS
HCT-15 colon = system: HCT-15 colon
OVCAR-3 ovarian = system: OVCAR-3 ovarian
HOP-92 NSCLC = system: HOP-92 NSCLC
HCT-116 colon = system: HCT-116 colon
SF-539 CNS = system: SF-539 CNS
K-562 leukemia = system: K-562 leukemia
OVCAR-8 ovarian = system: OVCAR-8 ovarian
SK-MEL-28 melanoma = system: SK-MEL-28 melanoma
LOX IMVI melanoma = system: LOX IMVI melanoma
HL-60(TB) leukemia = system: HL-60(TB) leukemia
KM12 colon = system: KM12 colon
HCC-2998 colon = system: HCC-2998 colon
MCF7 breast = system: MCF7 breast
RPMI-8226 leukemia = system: RPMI-8226 leukemia
HS 578T breast = system: HS 578T breast
MDA-MB-231 breast = system: MDA-MB-231 breast
SNB-19 CNS = system: SNB-19 CNS
SK-MEL-2 melanoma = system: SK-MEL-2 melanoma
ACHN renal = system: ACHN renal
MALME-3M melanoma = system: MALME-3M melanoma
UACC-257 melanoma = system: UACC-257 melanoma
MDA-MB-435 = system: MDA-MB-435
OVCAR-4 ovarian = system: OVCAR-4 ovarian
DU-145 prostate = system: DU-145 prostate
NCI-H226 lung = system: NCI-H226 lung
SN12C renal = system: SN12C renal
MOLT-4 leukemia = system: MOLT-4 leukemia
RXF 393 renal = system: RXF 393 renal
NCI-H23 lung = system: NCI-H23 lung
UO-31 renal = system: UO-31 renal
TK-10 renal = system: TK-10 renal
UACC-62 melanoma = system: UACC-62 melanoma
SW-620 colon = system: SW-620 colon
CCRF-CEM leukemia = system: CCRF-CEM leukemia
SK-MEL-5 melanoma = system: SK-MEL-5 melanoma
BT-549 breast = system: BT-549 breast
OVCAR-5 ovarian = system: OVCAR-5 ovarian
SR leukemia = system: SR leukemia
A549 NSCLC = system: A549 NSCLC
PC-3 prostate = system: PC-3 prostate
IGROV1 ovarian = system: IGROV1 ovarian
SF-295 CNS = system: SF-295 CNS
786-0 renal = system: 786-0 renal
CAKI-1 renal = system: CAKI-1 renal
SNB-75 CNS = system: SNB-75 CNS
NCI/ADR-RES ovarian = system: NCI/ADR-RES ovarian
M14 melanoma = system: M14 melanoma
T-47D breast = system: T-47D breast
SF-268 CNS = system: SF-268 CNS

CN1C/C=C/CCOc2cccc(c2)-c2ccnc(n2)Nc2cccc(c2)C1
GI50 (A498 renal): 35.6 nM
TGI (A498 renal): 110 nM
GI50 (NCI-H522 lung): 52.2 nM
TGI (NCI-H522 lung): 233 nM
GI50 (HOP-62 NSCLC): 42.2 nM
TGI (HOP-62 NSCLC): 376 nM
GI50 (SK-OV-3 ovarian): 174 nM
TGI (SK-OV-3 ovarian): 3820 nM
GI50 (HT29 colon): 37.6 nM
TGI (HT29 colon): 416 nM
GI50 (COLO 205 colon): 20.4 nM
TGI (COLO 205 colon): 44.2 nM
GI50 (NCI-H460 lung): 34.7 nM
TGI (NCI-H460 lung): 352 nM
GI50 (EKVX NSCLC): 50.1 nM
TGI (EKVX NSCLC): 666 nM
GI50 (U251 CNS): 42.1 nM
TGI (U251 CNS): 1070 nM
GI50 (HCT-15 colon): 36 nM
TGI (HCT-15 colon): 3180 nM
GI50 (OVCAR-3 ovarian): 33.6 nM
TGI (OVCAR-3 ovarian): 1230 nM
GI50 (HOP-92 NSCLC): 42.8 nM
TGI (HOP-92 NSCLC): 242 nM
GI50 (HCT-116 colon): 27.7 nM
TGI (HCT-116 colon): 1080 nM
GI50 (SF-539 CNS): 33.8 nM
TGI (SF-539 CNS): 155 nM
GI50 (K-562 leukemia): 98.9 nM
TGI (K-562 leukemia): > 20800 nM
GI50 (OVCAR-8 ovarian): 41.2 nM
TGI (OVCAR-8 ovarian): 1260 nM
GI50 (SK-MEL-28 melanoma): 34.9 nM
TGI (SK-MEL-28 melanoma): 188 nM
GI50 (LOX IMVI melanoma): 24.8 nM
TGI (LOX IMVI melanoma): 1120 nM
GI50 (HL-60(TB) leukemia): 25.9 nM
TGI (HL-60(TB) leukemia): 94.1 nM
GI50 (KM12 colon): 33.3 nM
TGI (KM12 colon): 176 nM
GI50 (HCC-2998 colon): 48 nM
TGI (HCC-2998 colon): 623 nM
GI50 (MCF7 breast): 30.9 nM
TGI (MCF7 breast): 1170 nM
GI50 (RPMI-8226 leukemia): 58 nM
TGI (RPMI-8226 leukemia): 879 nM
GI50 (HS 578T breast): 36.7 nM
TGI (HS 578T breast): 438 nM
GI50 (MDA-MB-231 breast): 73.1 nM
TGI (MDA-MB-231 breast): 1080 nM
GI50 (SNB-19 CNS): 57.4 nM
TGI (SNB-19 CNS): 4400 nM
GI50 (SK-MEL-2 melanoma): 37.4 nM
TGI (SK-MEL-2 melanoma): 125 nM
GI50 (ACHN renal): 30.7 nM
TGI (ACHN renal): 1450 nM
GI50 (MALME-3M melanoma): 46.9 nM
TGI (MALME-3M melanoma): 179 nM
GI50 (UACC-257 melanoma): 50.5 nM
TGI (UACC-257 melanoma): 225 nM
GI50 (MDA-MB-435): 36.6 nM
TGI (MDA-MB-435): 153 nM
GI50 (OVCAR-4 ovarian): 108 nM
TGI (OVCAR-4 ovarian): 1310 nM
GI50 (DU-145 prostate): 40.2 nM
TGI (DU-145 prostate): 1400 nM
GI50 (NCI-H226 lung): 34.7 nM
TGI (NCI-H226 lung): 442 nM
GI50 (SN12C renal): 44.2 nM
TGI (SN12C renal): 2730 nM
GI50 (MOLT-4 leukemia): 39.6 nM
TGI (MOLT-4 leukemia): 959 nM
GI50 (RXF 393 renal): 20.7 nM
TGI (RXF 393 renal): 44.7 nM
GI50 (NCI-H23 lung): 57.7 nM
TGI (NCI-H23 lung): 289 nM
GI50 (UO-31 renal): 25.1 nM
TGI (UO-31 renal): 84.9 nM
GI50 (TK-10 renal): 48 nM
TGI (TK-10 renal): 506 nM
GI50 (UACC-62 melanoma): 32.8 nM
TGI (UACC-62 melanoma): 128 nM
GI50 (SW-620 colon): 39.6 nM
TGI (SW-620 colon): 969 nM
GI50 (CCRF-CEM leukemia): 38.6 nM
GI50 (SK-MEL-5 melanoma): 31.8 nM
TGI (SK-MEL-5 melanoma): 222 nM
GI50 (BT-549 breast): 39.8 nM
TGI (BT-549 breast): 210 nM
GI50 (OVCAR-5 ovarian): 32.3 nM
TGI (OVCAR-5 ovarian): 2080 nM
GI50 (SR leukemia): 20.1 nM
GI50 (A549 NSCLC): 39.4 nM
TGI (A549 NSCLC): 1120 nM
GI50 (PC-3 prostate): 51.9 nM
TGI (PC-3 prostate): 1390 nM
GI50 (IGROV1 ovarian): 32.4 nM
TGI (IGROV1 ovarian): 338 nM
GI50 (SF-295 CNS): 32.1 nM
TGI (SF-295 CNS): 434 nM
GI50 (786-0 renal): 31.7 nM
TGI (786-0 renal): 203 nM
GI50 (CAKI-1 renal): 39 nM
TGI (CAKI-1 renal): 460 nM
GI50 (SNB-75 CNS): 39 nM
TGI (SNB-75 CNS): 184 nM
GI50 (NCI/ADR-RES ovarian): 56.1 nM
TGI (NCI/ADR-RES ovarian): 963 nM
GI50 (M14 melanoma): 39.1 nM
TGI (M14 melanoma): 181 nM
GI50 (T-47D breast): 43.7 nM
TGI (T-47D breast): 447 nM
GI50 (SF-268 CNS): 42.5 nM
TGI (SF-268 CNS): 264 nM
